pIC50: −log10 of the molar value. Values belong to the compound of their own block, whether it stands above or below them.
Tests used:
[1] = system: PDE4 enzyme purified from U937 human monocytic cells; experiment: PDE4 (U937 cell-derived) enzyme assay; format: biochemical
Procedure: PDE4 enzyme is purified from U937 human monocytic cells by gel filtration chromatography as previously described (Muller et al. Bioorg. & Med Chem Lett 8:2669-2674 (1998)). Phosphodiesterase reactions are carried out in 50 mM Tris HCl pH 7.5, 5 mM MgCl2, 1 μM cAMP, 10 nM [^3H]-cAMP for 30 minutes at 30° C., terminated by boiling, treated with 1 mg/ml snake venom and separated using AG-1XS ion exchange resin (BioRad) as described (Id). Reactions consumed less than 15% of available substrate.

bovine PDE1 = experiment: PDE1 enzyme assay (PDE selectivity); format: biochemical
Procedure: (§1) The phosphodiesterase selectivity of 2,5-Diamino-4-(4-chloro-phenyl)-thieno[2,3-d]pyrimidine-6-carboxylic acid amide was assessed by testing against bovine PDE1, human PDE2, PDE3 and PDE5 from human platelets and PDE6 from bovine retinal rod outer segments (MDS Pharma Services).

human PDE2 = biological target: T1, human PDE2 (Homo sapiens, UniProt O00408); experiment: PDE2 enzyme assay (PDE selectivity); format: biochemical; conditions: read-out: PDE2 (% inhibit at 10 μM)
T1 construct: MDS Pharma Services
T1 sequence (O00408 whole entry): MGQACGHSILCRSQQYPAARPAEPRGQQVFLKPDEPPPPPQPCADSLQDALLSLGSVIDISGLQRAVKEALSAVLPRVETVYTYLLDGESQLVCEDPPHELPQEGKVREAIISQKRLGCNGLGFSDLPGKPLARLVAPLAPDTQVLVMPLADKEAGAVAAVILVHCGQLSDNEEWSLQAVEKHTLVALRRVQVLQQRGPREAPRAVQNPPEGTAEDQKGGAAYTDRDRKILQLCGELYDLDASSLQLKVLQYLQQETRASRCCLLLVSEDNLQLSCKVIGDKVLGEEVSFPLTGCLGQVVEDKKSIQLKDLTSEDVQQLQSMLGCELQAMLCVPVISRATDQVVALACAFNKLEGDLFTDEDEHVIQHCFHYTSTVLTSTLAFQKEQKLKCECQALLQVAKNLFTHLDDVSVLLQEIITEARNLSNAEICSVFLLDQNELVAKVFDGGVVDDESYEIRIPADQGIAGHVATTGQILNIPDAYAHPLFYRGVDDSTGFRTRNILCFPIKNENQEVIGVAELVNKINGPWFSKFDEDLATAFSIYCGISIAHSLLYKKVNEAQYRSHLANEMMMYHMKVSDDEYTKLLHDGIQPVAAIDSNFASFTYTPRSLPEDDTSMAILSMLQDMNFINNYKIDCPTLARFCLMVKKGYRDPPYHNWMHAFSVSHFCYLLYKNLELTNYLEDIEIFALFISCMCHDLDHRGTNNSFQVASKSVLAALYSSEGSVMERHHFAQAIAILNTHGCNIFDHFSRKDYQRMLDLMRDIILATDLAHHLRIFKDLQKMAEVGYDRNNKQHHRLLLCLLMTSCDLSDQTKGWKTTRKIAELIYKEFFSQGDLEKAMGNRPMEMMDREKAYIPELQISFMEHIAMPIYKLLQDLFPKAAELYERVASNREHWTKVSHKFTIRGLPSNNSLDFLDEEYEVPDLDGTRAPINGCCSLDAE
Procedure: as §1

[2] = biological target: T2, PDE3 from human platelets (Homo sapiens, UniProt Q14432); experiment: PDE3 enzyme assay (PDE selectivity); format: biochemical; conditions: read-out: PDE3 (% inhibit at 10 μM)
T2 construct: PDE3 and PDE5 from human platelets; tissue MDS Pharma Services; host or cells: human platelets
T2 sequence (Q14432 whole entry): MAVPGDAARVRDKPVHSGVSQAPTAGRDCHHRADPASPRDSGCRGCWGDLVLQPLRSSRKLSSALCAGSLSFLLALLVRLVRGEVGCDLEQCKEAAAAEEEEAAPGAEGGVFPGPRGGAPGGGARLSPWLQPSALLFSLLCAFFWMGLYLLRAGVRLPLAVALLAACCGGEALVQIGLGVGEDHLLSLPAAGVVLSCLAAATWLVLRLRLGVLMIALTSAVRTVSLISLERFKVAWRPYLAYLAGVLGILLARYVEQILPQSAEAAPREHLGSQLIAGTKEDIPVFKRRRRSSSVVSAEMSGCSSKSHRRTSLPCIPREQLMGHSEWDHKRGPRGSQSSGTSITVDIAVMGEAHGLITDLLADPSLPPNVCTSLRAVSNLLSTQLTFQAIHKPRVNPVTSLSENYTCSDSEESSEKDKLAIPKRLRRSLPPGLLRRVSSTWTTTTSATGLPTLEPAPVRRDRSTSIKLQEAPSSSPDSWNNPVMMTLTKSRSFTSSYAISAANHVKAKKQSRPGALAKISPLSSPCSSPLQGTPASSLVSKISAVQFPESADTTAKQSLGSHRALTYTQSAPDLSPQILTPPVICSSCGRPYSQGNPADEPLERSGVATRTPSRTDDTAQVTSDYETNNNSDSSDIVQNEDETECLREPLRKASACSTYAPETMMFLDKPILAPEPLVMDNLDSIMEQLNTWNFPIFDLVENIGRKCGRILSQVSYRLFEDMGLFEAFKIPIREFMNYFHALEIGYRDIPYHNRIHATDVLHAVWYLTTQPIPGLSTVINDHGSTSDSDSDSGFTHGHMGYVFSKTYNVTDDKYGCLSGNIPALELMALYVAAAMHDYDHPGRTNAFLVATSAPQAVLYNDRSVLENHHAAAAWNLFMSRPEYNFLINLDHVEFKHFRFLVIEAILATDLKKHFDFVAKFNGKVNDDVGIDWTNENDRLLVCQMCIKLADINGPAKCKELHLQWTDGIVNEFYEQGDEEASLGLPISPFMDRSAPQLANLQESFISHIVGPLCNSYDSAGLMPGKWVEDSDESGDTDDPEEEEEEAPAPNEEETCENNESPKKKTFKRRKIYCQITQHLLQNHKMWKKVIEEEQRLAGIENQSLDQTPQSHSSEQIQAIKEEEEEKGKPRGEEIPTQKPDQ
Procedure: as §1

[3] = biological target: T3, PDE5 from human platelets (Homo sapiens, UniProt O76074); experiment: PDE5 enzyme assay (PDE selectivity); format: biochemical; conditions: read-out: PDE5 (% inhibit at 10 μM)
T3 construct: PDE3 and PDE5 from human platelets; tissue MDS Pharma Services; host or cells: human platelets
Procedure: as §1

[4] = biological target: T4, PDE6 from bovine retinal rod outer segments (Bos taurus, UniProt P11541+P23439); experiment: PDE6 enzyme assay (PDE selectivity); format: biochemical; conditions: read-out: PDE6 (% inhibit at 10 μM)
T4 construct: PDE6 from bovine retinal rod outer segments; tissue MDS Pharma Services; host or cells: bovine retinal rod outer segments
T4 sequence (P11541 2-856 limits assumed): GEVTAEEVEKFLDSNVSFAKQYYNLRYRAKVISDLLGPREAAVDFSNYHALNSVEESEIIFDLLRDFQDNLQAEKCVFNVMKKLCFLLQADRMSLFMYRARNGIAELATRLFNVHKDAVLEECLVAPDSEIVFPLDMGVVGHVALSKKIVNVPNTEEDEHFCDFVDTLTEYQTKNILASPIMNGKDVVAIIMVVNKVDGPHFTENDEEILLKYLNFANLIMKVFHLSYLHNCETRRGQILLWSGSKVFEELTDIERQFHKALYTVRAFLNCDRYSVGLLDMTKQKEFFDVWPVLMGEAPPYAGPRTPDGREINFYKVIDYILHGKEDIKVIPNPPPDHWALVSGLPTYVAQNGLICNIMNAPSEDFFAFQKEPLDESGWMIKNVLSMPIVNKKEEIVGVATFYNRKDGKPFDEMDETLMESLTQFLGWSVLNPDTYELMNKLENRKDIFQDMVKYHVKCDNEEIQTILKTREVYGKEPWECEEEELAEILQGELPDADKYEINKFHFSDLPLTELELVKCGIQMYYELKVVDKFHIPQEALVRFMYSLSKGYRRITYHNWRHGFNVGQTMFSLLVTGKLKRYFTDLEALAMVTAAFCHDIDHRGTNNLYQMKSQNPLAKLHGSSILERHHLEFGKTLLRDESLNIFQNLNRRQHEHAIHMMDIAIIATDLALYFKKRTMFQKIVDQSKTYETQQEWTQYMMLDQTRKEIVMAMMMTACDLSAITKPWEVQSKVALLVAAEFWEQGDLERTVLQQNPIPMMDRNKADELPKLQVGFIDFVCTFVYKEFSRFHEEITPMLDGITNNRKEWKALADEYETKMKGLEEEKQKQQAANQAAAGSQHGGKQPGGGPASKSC
T4 sequence (P23439 2-850 limits assumed): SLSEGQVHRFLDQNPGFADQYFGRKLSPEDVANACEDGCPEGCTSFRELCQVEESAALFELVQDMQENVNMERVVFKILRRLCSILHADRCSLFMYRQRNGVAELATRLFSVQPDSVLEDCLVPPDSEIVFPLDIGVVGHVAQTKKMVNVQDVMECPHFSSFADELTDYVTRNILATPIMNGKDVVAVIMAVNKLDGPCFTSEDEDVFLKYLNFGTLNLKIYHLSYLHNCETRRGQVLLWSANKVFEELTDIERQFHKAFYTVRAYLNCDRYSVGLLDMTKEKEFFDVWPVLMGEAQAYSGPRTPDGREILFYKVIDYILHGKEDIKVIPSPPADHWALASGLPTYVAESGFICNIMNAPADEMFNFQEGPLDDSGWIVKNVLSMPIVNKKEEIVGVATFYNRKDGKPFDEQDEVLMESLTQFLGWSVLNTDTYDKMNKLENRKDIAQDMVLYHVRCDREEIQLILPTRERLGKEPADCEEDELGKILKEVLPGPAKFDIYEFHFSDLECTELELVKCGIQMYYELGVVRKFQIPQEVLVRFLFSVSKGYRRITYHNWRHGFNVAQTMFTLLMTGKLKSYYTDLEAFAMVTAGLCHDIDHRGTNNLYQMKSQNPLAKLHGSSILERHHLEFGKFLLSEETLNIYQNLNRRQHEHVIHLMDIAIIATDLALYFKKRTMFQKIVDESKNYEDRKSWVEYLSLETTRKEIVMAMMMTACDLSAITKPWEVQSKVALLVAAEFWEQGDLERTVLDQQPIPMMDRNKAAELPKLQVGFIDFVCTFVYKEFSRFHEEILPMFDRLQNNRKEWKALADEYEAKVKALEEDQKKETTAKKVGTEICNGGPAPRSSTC
Procedure: as §1

melting point: 177 to 179 °C
Structure (SMILES): NC(=O)c1sc2ncnc(-c3cccc(NC(=O)Nc4ccncc4)c3)c2c1N [Example 5.2.166, 5-amino-4-{3-[(4-pyridylamino)carbonylamino]phenyl}-thiopheno[2,3-d]pyrimidine-6-carboxamide]

pIC50 [1]: 6.92
PDE1 (% inhibit at 10 μM) (bovine PDE1): 18%
inhibition at 10 µM (human PDE2): 8%
inhibition at 10 µM [2]: 14%
inhibition at 10 µM [3]: -2%
inhibition at 10 µM [4]: 8%
Structure (SMILES): NC(=O)c1sc2nc(N)nc(-c3ccc(Cl)cc3)c2c1N [2,5-Diamino-4-(4-chloro-phenyl)-thieno[2,3-d]pyrimidine-6-carboxylic acid amide]

Further lines, the compound ahead of its results:

Structure (SMILES): NC(=O)c1sc2ncnc(-c3cc4c(c(OCc5ccccc5)c3)CCO4)c2c1N [Example 5.2.140, 5-amino-4-(4-(benzyloxy)-2,3-dihydrobenzofuran-6-yl)thieno[2,3-d]pyrimidine-6-carboxamide]
melting point: 239 °C

Structure (SMILES): NC(=O)c1sc2ncnc(-c3cccc(NC(=O)Nc4cccnc4)c3)c2c1N [Example 5.2.167, 5-amino-4-{3-[(3-pyridylamino)carbonylamino]phenyl}-thiopheno[2,3-d]pyrimidine-6-carboxamide]
melting point: 199 to 200 °C

Structure (SMILES): NC(=O)c1sc2ncnc(-c3cc(O)c4c(c3)OCC4)c2c1N [Example 5.2.141, 5-amino-4-(4-hydroxy-2,3-dihydrobenzofuran-6-yl)thieno[2,3-d]pyrimidine-6-carboxamide]
melting point: 285 °C

Structure (SMILES): NC(=O)c1sc2ncnc(-c3cccc(NC(=O)Nc4ccccc4C(F)(F)F)c3)c2c1N [Example 5.2.170, 5-amino-4-[3-({[2-(trifluoromethyl)phenyl]amino}-carbonylamino)phenyl]thiopheno[2,3-d]pyrimidine-6-carboxamide]
melting point: 172 to 175 °C

— patent US20080004271A1, “Inhibitors of TNFalpha, PDE4 and B-RAF, compositions thereof and methods of use therewith” (priority 2006, published 2008)
